This passage reports T/C results from PubChem BioAssay AID330 (DTP/NCI, 2004).

Several values for one entry are separate records, joined by “and”; a condition that tells them apart may be missing. Identical values can stand only once. Inconclusive results and toxic doses are left out.

The assay relates to P388 leukemia ip, CD2F1 mice, survival T/C. In words: NCI In Vivo Anticancer Drug Screen. Data for tumor model P388 Leukemia (intraperitoneal) in CD2F1 (CDF1) mice. The following applies: endpoint: median survival time, higher = longer survival. The procedure, abridged:
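Mice carrying the transplanted tumor received test compound or vehicle. Survival was recorded in each group, and the value is the treated-group measurement divided by that of the vehicle-treated control group.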

[1] abbreviates: dose: 50.0 mg/kg/injection, schedule: Q01DX005 (ip), vehicle: Klucel (hydroxypropylcellulose) (HPC).
Where [2] appears, read: dose: 100.0 mg/kg/injection, schedule: Q01DX005 (ip), vehicle: Klucel (hydroxypropylcellulose) (HPC).
The mark [3] stands for this setting: dose: 200.0 mg/kg/injection, schedule: Q01DX005 (ip), vehicle: Klucel (hydroxypropylcellulose) (HPC).
Where [4] appears, read: dose: 60.0 mg/kg/injection, schedule: Q01DX005 (ip), vehicle: saline.
[5] abbreviates: dose: 120.0 mg/kg/injection, schedule: Q01DX005 (ip), vehicle: saline.
The mark [6] stands for this setting: dose: 240.0 mg/kg/injection, schedule: Q01DX005 (ip), vehicle: saline.
Where [7] appears, read: dose: 50.0 mg/kg/injection, schedule: Q01DX009 (ip), vehicle: saline.
Setting [8] is: dose: 100.0 mg/kg/injection, schedule: Q01DX009 (ip), vehicle: saline.
The mark [9] stands for this setting: dose: 200.0 mg/kg/injection, schedule: Q01DX009 (ip), vehicle: saline.
Setting [10] is: dose: 100.0 mg/kg/injection, schedule: Q01DX001 (ip), vehicle: saline with Tween-80.
Setting [11] is: dose: 50.0 mg/kg/injection, schedule: Q01DX009 (ip), vehicle: saline with Tween-80.
Setting [12] is: dose: 100.0 mg/kg/injection, schedule: Q01DX009 (ip), vehicle: saline with Tween-80.
[13] abbreviates: dose: 200.0 mg/kg/injection, schedule: Q01DX009 (ip), vehicle: saline with Tween-80.
Setting [14] is: dose: 25.0 mg/kg/injection, schedule: Q01DX005 (ip), vehicle: Klucel (hydroxypropylcellulose) (HPC).
Where [15] appears, read: dose: 50.0 mg/kg/injection, schedule: Q01DX005 (ip), vehicle: saline with Tween-80.
Setting [16] is: dose: 100.0 mg/kg/injection, schedule: Q01DX005 (ip), vehicle: saline with Tween-80.
Setting [17] is: dose: 100.0 mg/kg/injection, schedule: Q04DX003 (ip), vehicle: saline with Tween-80.
The mark [18] stands for this setting: dose: 200.0 mg/kg/injection, schedule: Q04DX003 (ip), vehicle: saline with Tween-80.
[19] abbreviates: dose: 25.0 mg/kg/injection, schedule: Q01DX005 (ip), vehicle: saline with Tween-80.

Consider `CCOC(=O)NNS(=O)(=O)CCC(NC(=O)OCc1ccccc1)C(=O)OCc1ccccc1` (stereo unspecified), for which the T/C is 96 % of control (dose: 12.5 mg/kg/injection, schedule: Q01DX009 (ip), vehicle: other); 104 % of control (dose: 25.0 mg/kg/injection, schedule: Q01DX009 (ip), vehicle: other); 104 % of control (dose: 50.0 mg/kg/injection, schedule: Q01DX009 (ip), vehicle: other); 104 % of control (dose: 100.0 mg/kg/injection, schedule: Q01DX009 (ip), vehicle: other); 104 % of control (dose: 200.0 mg/kg/injection, schedule: Q01DX009 (ip), vehicle: other).

As to `COc1cccc(C2OC3=C(Nc4ccc(Cl)cc4N3)C2=O)c1` (stereo unspecified), the T/C reads like this: under setting [1], 93 % of control; under setting [2], 104 % of control; under setting [3], 90 % of control.

As to `COCC1=C(C)CC(CC(=O)OC)C1=O` (stereo unspecified), the T/C by setting is: under setting [4], 98 % of control; under setting [5], 98 % of control; under setting [6], 101 % of control.

Take `C=C(C)[C@H]1C[C@@H](O)[C@H]2O[C@@]2(C)C1`: the T/C was 91 % of control under setting [7], 90 % of control under setting [8] and 102 % of control under setting [9].

For the compound `Cc1cc(NCc2ccccc2)cc(=O)[nH]1`, the T/C by setting is: under setting [10], 95 % of control; (dose: 200.0 mg/kg/injection, schedule: Q01DX001 (ip), vehicle: saline with Tween-80) 89 % of control; (dose: 400.0 mg/kg/injection, schedule: Q01DX001 (ip), vehicle: saline with Tween-80) 87 % of control.

With `CC(C)(C)N=C(CCC(C#N)(C#N)CCC(=NC(C)(C)C)Nc1ccc([N+](=O)[O-])cc1)Nc1ccc([N+](=O)[O-])cc1`, the T/C under setting [11] was 98 % of control, the T/C under setting [12] was 95 % of control and the T/C under setting [13] is 88 % of control.

As for `CN(C)c1ccc2c(Nc3ccc(NS(C)(=O)=O)cc3)c3ccc(N(C)C)cc3nc2c1`, the T/C under setting [14] is 161 % of control; the T/C under setting [1] is 153 % of control and 155 % of control; the T/C under setting [2] is 172 % of control and 212 % of control; the T/C under setting [3] is 173 % of control and 216 % of control.

`O=C(CI)Nc1ccc2[nH]c(=O)cc(C(=O)O)c2c1`: the T/C by setting is: under setting [14], 100 % of control; under setting [1], 101 % of control; under setting [2], 108 % of control.

On to `O=C1C=C(SCCO)C(=O)c2ccccc21`, for which the T/C reads like this: (dose: 0.62 mg/kg/injection, schedule: Q01DX009 (ip), vehicle: saline with Tween-80) 100 % of control; (dose: 1.25 mg/kg/injection, schedule: Q01DX009 (ip), vehicle: saline with Tween-80) 100 % of control; (dose: 2.5 mg/kg/injection, schedule: Q01DX009 (ip), vehicle: saline with Tween-80) 95 % of control.

Turning to `CCOC(=O)CS(=O)(=O)CCCS(=O)(=O)CC(=O)OCC`, the T/C was 97 % of control under setting [7], 96 % of control under setting [8] and 94 % of control under setting [9].

Take `O=C1c2ccc(Cl)cc2OCCC1CN1CCCCC1` (stereo unspecified): the T/C is, setting by setting: (dose: 100.0 mg/kg/injection, schedule: Q04DX003 (ip), vehicle: saline) 100 % of control; (dose: 200.0 mg/kg/injection, schedule: Q04DX003 (ip), vehicle: saline) 103 % of control.

For `CC(C(=O)c1ccccc1)c1nc2nnc(N)n2[nH]c1=O` (stereo unspecified), the T/C under setting [4] is 95 % of control, the T/C under setting [5] was 100 % of control and the T/C under setting [6] was 95 % of control.

Turning to `CC(C)CC(NC(=O)OCC[P+](c1ccccc1)(c1ccccc1)c1ccccc1)C(=O)O` (stereo unspecified), the T/C is, setting by setting: (dose: 6.25 mg/kg/injection, schedule: Q04DX003 (ip), vehicle: saline) 102 % of control; (dose: 12.5 mg/kg/injection, schedule: Q04DX003 (ip), vehicle: saline) 105 % of control; (dose: 25.0 mg/kg/injection, schedule: Q04DX003 (ip), vehicle: saline) 112 % of control; (dose: 50.0 mg/kg/injection, schedule: Q04DX003 (ip), vehicle: saline) 121 % of control.

Consider `OC(CCl)Cn1nnc2ccccc21` (stereo unspecified), for which the T/C reads like this: under setting [15], 103 % of control; under setting [16], 100 % of control; under setting [17], 93 % of control; (dose: 200.0 mg/kg/injection, schedule: Q01DX005 (ip), vehicle: saline with Tween-80) 94 % of control; under setting [18], 98 % of control; (dose: 400.0 mg/kg/injection, schedule: Q04DX003 (ip), vehicle: saline with Tween-80) 99 % of control.

With `C=C1[C@@H](NC)CC[C@]23C[C@]24CC[C@]2(C)[C@@H]([C@H](C)NC)[C@H](O)C[C@@]2(C)[C@@H]4CC[C@@H]13`, the T/C (dose: 25.0 mg/kg/injection, schedule: Q01DX001 (ip), vehicle: saline with Tween-80) was 104 % of control; the T/C (dose: 50.0 mg/kg/injection, schedule: Q01DX001 (ip), vehicle: saline with Tween-80) was 99 % of control; the T/C under setting [10] was 104 % of control.

Take `CC(=O)OC1CC(OC(C)=O)C(OC(C)=O)C(CS[As](C)C)O1` (stereo unspecified): the T/C runs as follows: under setting [11], 99 % of control; under setting [12], 99 % of control; under setting [13], 96 % of control.

For the compound `CN(C)CCCNC(=O)c1cccc2cccc(C(=O)O)c12`, the T/C runs as follows: under setting [4], 97 % of control; under setting [5], 101 % of control; under setting [6], 104 % of control.

As for `Nc1csc(Nc2c3ccccc3nc3ccccc23)n1`, the T/C was 98 % of control (dose: 12.5 mg/kg/injection, schedule: Q04DX002 (ip), vehicle: distilled water + Tween-80) and 97 % of control (dose: 25.0 mg/kg/injection, schedule: Q04DX002 (ip), vehicle: distilled water + Tween-80).

On to `CC(=O)c1sc(SSc2sc(C(C)=O)c(C)c2[N+](=O)[O-])c([N+](=O)[O-])c1C`, for which the T/C reads like this: (dose: 100.0 mg/kg/injection, schedule: Q04DX002 (ip), vehicle: Klucel (hydroxypropylcellulose) (HPC)) 91 % of control; (dose: 200.0 mg/kg/injection, schedule: Q04DX002 (ip), vehicle: Klucel (hydroxypropylcellulose) (HPC)) 89 % of control; (dose: 400.0 mg/kg/injection, schedule: Q04DX002 (ip), vehicle: Klucel (hydroxypropylcellulose) (HPC)) 86 % of control.

As to `CC(C)CC1C(=O)OC(C(C)C)C(=O)N(C)C(CC(C)C)C(=O)OC(C(C)C)C(=O)N(C)C(CC(C)C)C(=O)OC(C(C)C)C(=O)N(C)C(CC(C)C)C(=O)OC(C(C)C)C(=O)N1C` (stereo unspecified), the T/C runs as follows: (dose: 1.0 mg/kg/injection, schedule: Q01DX009 (ip), vehicle: saline with Tween-80) 99 % of control; (dose: 2.0 mg/kg/injection, schedule: Q01DX009 (ip), vehicle: saline with Tween-80) 90 % of control; (dose: 4.0 mg/kg/injection, schedule: Q01DX009 (ip), vehicle: saline with Tween-80) 101 % of control; (dose: 8.0 mg/kg/injection, schedule: Q01DX009 (ip), vehicle: saline with Tween-80) 101 % of control; (dose: 16.0 mg/kg/injection, schedule: Q01DX009 (ip), vehicle: saline with Tween-80) 96 % of control.

For `S=c1[nH]cc2cnccn12`, the T/C reads like this: (dose: 50.0 mg/kg/injection, schedule: Q04DX003 (ip), vehicle: saline with Tween-80) 100 % of control; under setting [17], 110 % of control; under setting [18], 110 % of control.

As to `Cc1c(COC(=O)NC(C)C)c(COC(=O)NC(C)C)c2n1CS(=O)(=O)C2`, the T/C under setting [19] is 159 % of control; the T/C under setting [15] is 184 % of control and 188 % of control; the T/C under setting [16] was 218 % of control.

Take `CS(=O)(=O)c1snc(N)c1C#N`: the T/C is 106 % of control (dose: 12.5 mg/kg/injection, schedule: Q01DX005 (ip), vehicle: saline with Tween-80); 101 % of control under setting [19]; 102 % of control under setting [15].

As to `CCC[As](CCC)SCC1OC(OC(C)=O)C(OC(C)=O)C(OC(C)=O)C1OC(C)=O` (stereo unspecified), the T/C was 117 % of control under setting [11] and 110 % of control under setting [12].

In the case of `COC(=O)c1ccc(NCC(=N)N)cc1`, the T/C by setting is: (dose: 50.0 mg/kg/injection, schedule: Q01DX001 (ip), vehicle: saline) 100 % of control; (dose: 100.0 mg/kg/injection, schedule: Q01DX001 (ip), vehicle: saline) 100 % of control; (dose: 200.0 mg/kg/injection, schedule: Q01DX001 (ip), vehicle: saline) 104 % of control.
